# Results as given in PubChem BioAssay (NCI).
#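 Growth conditions: 96-well plates. Treatment: test compound, 48 hours, 5 concentrations. Analysis: linear interpolation between bracketing concentrations; unreached endpoints set to highest concentration. Abbreviation: GI50, concentration required for 50% inhibition of growth. At the TGI there is no net growth.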
# Key:
# Assay in all cases: NCI tumour cell line growth inhibition, 48 h
# HS 578T breast = test system: HS 578T breast
# HL-60(TB) leukemia = test system: HL-60(TB) leukemia
# UACC-257 melanoma = test system: UACC-257 melanoma
# K-562 leukemia = test system: K-562 leukemia
# BT-549 breast = test system: BT-549 breast
# MDA-MB-435 = test system: MDA-MB-435
# CAKI-1 renal = test system: CAKI-1 renal
# NCI-H226 lung = test system: NCI-H226 lung
# HT29 colon = test system: HT29 colon
# SF-539 CNS = test system: SF-539 CNS
SMILES,GI50 (HS 578T breast) [µM],TGI (HS 578T breast) [µM],GI50 (HL-60(TB) leukemia) [µM],TGI (HL-60(TB) leukemia) [µM],GI50 (UACC-257 melanoma) [µM],TGI (UACC-257 melanoma) [µM],GI50 (K-562 leukemia) [µM],TGI (K-562 leukemia) [µM],GI50 (BT-549 breast) [µM],TGI (BT-549 breast) [µM],TGI (MDA-MB-435) [µM],TGI (CAKI-1 renal) [µM],TGI (NCI-H226 lung) [µM],TGI (HT29 colon) [µM],TGI (SF-539 CNS) [µM],GI50 (MDA-MB-435) [µM],GI50 (CAKI-1 renal) [µM],GI50 (NCI-H226 lung) [µM],GI50 (SF-539 CNS) [µM],GI50 (HT29 colon) [µM]
COc1ccc2c(c1)c(-c1nc(-c3c[nH]c4ncccc34)cs1)cn2CCCCN1CCCCC1,1.66,4.38,1.72,3.54,1.8,3.35,1.61,3.49,1.66,3.13,,,,,,,,,,
CCC(=O)OCN(C)c1nc(N(C)COC(=O)CC)nc(N(C)COC(=O)CC)n1,,> 100,,,,> 100,,> 100,,> 100,> 100,> 100,> 100,98.3,,,,,,
O=C1c2ccccc2OCC12OC21C=CC(Cl)=CC1 (stereo not given),,,,37.3,,> 100,,> 100,,83.7,51.5,,> 100,36.5,> 100,,,,,
N[C@H](Cc1ccc2oc3cc(=O)c4ccccc4c-3nc2c1)C(=O)O,,> 100,,> 100,,> 100,,71.2,,,30.3,> 100,> 100,> 100,> 100,,,,,
COC(=O)C1=C(OC)[C@H]2C#C/C=C\C#C[C@@H]3Nc4c(cc(O)c5c4C(=O)c4ccccc4C5=O)[C@]24O[C@@]34[C@H]1C,,3.82,,< 0.01,,0.0363,,0.0139,,< 0.0339,0.0448,< 0.01,< 0.01,< 0.0409,< 0.01,,,,,
Cc1nc2ccc(S(=O)(=O)Nc3nccs3)cc2c(=O)n1NS(=O)(=O)c1nccs1,,> 100,,> 100,,> 100,,> 100,,> 100,> 100,> 100,> 100,> 100,> 100,,,,,
O=C(CBr)c1ccc2cc(Br)c3ccccc3c2c1,,59.6,,69.6,,49.9,,77.6,,34,42.6,38,33.6,> 100,41.7,,,,,
CCCCC1C=Cn2c(=O)oc3c(OC(C)C)c(C)c(O)c1c32 (stereo not given),,14.3,,1.88,,8.78,,> 35.3,,13.4,3.38,2.34,8.12,11.7,19.2,,,,,
O=C(N[C@@H](Cc1coc2ccccc12)B(O)O)[C@@H]1C[C@H]2CC[C@@H]1O2,3.81,66.6,3.05,> 100,6.28,> 100,9.99,> 100,3.07,42.2,4.04,> 100,2.76,> 100,6.12,1.76,4.47,1.13,1.72,3.77
C(=Nc1ccc2c(c1)Cc1ccccc1-2)c1ccccn1,,> 100,,,,79.1,,> 100,,> 100,> 100,> 100,> 100,> 100,,,,,,
CN(C)CCCNc1ccc2ncn3c4ccc(O)cc4c(=O)c1c23,,13.6,,13.1,,24.5,,28,,31.9,19.3,1.59,3.59,12.9,15.7,,,,,
CCCn1cnc2c(SCc3ccc(Cl)cc3)nc(N)nc21,,> 100,,48.7,,41.8,,48.2,,> 100,57.8,82,,43.5,,,,,,
CCCO[C@@H]1[C@@H](OC(C)=O)[C@@H](OC(C)=O)C(C)(C)/C=C/[C@H](C)C(=O)[C@@]2(OC(C)=O)C[C@@](C)(OC(C)=O)[C@H](OC(C)=O)[C@@H]2[C@H]2OC(=O)CC[C@@]12OC(=O)c1ccccc1,,> 25,,> 25,,> 25,,> 25,,> 25,> 25,> 25,> 25,> 25,> 25,,,,,
O=c1cc(CF)[nH]c(=S)[nH]1,,> 100,,,,> 100,,> 100,,> 100,> 100,> 100,> 100,> 100,,,,,,
C=CCCC1(C)CCCNC1=S (stereo not given),,,,> 100,,> 100,,> 100,,,,,> 100,> 100,> 100,,,,,
CNC(C)C(O)c1ccc2oc3cc(=O)c4ccccc4c-3nc2c1 (stereo not given),,8.48,,> 100,,33.4,,> 100,,> 100,3.54,29.6,,> 100,5.99,,,,,
COc1ccc(C2COc3c(ccc(O)c3C)C2)cc1OC (stereo not given),,,,140,,> 200,,> 200,,,,> 200,> 139,> 200,197,,,,,
CCOC(=O)c1sc2nc(SC)nc(Nc3ccc4c(c3)OCCO4)c2c1N,,,,> 100,,> 100,,> 100,,32,42.7,49.2,> 100,53.3,18.2,,,,,
C/C(=N\NC(=S)N1CCCC1)c1nc2ncccc2[nH]1,,> 100,,> 100,,10.7,,37,,13,> 100,37.1,4.31,20.2,0.523,,,,,
